Laboratory results as given in ChEMBL document CHEMBL5465560, “Selectivity Literature for EUbOPEN Chemogenomic Library” (2024).

Tests used:
[1] = biological target: Mitogen-activated protein kinase 11 (Homo sapiens) (UniProt Q15759); test: Selectivity interaction (Kinase screening (Upstate/Millipore)) EUB0000604a MAPK11
[2] = biological target: T1, Serine/threonine-protein kinase 17B (Homo sapiens) (UniProt O94768); test: Selectivity interaction (LanthaScreen Eu Kinase Binding Assay) EUB0001632a STK17B; conditions: at 10 µM
T1 sequence (whole entry): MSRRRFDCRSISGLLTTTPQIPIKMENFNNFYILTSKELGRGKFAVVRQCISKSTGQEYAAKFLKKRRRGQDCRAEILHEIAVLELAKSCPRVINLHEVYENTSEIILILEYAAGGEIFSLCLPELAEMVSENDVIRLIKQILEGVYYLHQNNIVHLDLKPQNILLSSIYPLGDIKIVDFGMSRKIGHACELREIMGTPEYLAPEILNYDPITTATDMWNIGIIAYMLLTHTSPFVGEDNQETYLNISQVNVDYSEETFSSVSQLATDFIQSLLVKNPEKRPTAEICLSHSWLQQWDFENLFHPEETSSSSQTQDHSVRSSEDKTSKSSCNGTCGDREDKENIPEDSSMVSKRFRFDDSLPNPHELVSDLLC

[3] = biological target: Ribosomal protein S6 kinase alpha-6 (Homo sapiens, UniProt Q9UK32); conditions: at 10 µM
[4] = biological target: T2, Mitogen-activated protein kinase 12 (Homo sapiens) (UniProt P53778); test: Selectivity interaction (Upstate Kinase Profiler service (Millipore)) EUB0000056c MAPK12; conditions: at 1 µM
T2 sequence (whole entry): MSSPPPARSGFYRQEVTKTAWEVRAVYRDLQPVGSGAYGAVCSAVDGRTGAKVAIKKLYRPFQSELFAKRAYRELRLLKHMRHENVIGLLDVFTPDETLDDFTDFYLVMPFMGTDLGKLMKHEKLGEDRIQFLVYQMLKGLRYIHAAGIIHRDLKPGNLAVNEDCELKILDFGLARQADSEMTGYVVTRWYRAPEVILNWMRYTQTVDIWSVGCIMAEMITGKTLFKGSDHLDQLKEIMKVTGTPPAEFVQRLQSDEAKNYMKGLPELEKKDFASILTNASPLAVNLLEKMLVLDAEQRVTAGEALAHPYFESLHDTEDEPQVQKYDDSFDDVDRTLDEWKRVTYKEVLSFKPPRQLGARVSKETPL

[5] = biological target: Tyrosine-protein kinase JAK1 (Homo sapiens, UniProt P23458); test: Selectivity interaction (Antiproliferative activity against Tel-kinase transformed Ba/F3 cell line) EUB0000045b JAK1; assay type: cell-based; conditions: BaF3
[6] = biological target: T3, NUAK family SNF1-like kinase 1 (Homo sapiens) (UniProt O60285); test: Selectivity interaction (KinomeScan (DiscoverX)) EUB0000655a NUAK1; conditions: at 10 µM
T3 sequence (whole entry): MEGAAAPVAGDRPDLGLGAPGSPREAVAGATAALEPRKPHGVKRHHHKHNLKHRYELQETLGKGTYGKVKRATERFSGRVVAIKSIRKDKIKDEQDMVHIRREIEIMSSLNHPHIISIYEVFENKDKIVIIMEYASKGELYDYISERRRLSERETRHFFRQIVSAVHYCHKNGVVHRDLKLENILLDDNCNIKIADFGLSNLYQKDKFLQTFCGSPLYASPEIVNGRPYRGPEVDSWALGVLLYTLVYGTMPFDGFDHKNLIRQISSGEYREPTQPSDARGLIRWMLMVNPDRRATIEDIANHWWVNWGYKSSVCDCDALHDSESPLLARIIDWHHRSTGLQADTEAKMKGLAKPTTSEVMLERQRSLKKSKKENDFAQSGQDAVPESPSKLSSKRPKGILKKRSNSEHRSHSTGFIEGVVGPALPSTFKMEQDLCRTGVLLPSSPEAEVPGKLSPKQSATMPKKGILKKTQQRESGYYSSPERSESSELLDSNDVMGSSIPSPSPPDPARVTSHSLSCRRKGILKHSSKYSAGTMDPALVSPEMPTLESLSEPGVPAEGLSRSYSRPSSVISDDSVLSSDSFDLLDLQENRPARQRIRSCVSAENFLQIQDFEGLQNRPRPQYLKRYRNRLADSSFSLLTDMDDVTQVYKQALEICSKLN

[7] = biological target: Cyclin-dependent kinase 5 (Homo sapiens, UniProt Q00535); test: Selectivity interaction (ActivX KiNativ screen (ex vivo kinase selectivity in human PBMCs)) EUB0001619a CDK5; assay type: cell-based; conditions: PBMC, at 1 µM
[8] = biological target: Protein kinase C theta type (Homo sapiens, UniProt Q04759); test: Selectivity interaction (KinomeScan (DiscoverX)) EUB0001619a PRKCQ; conditions: at 1 µM
[9] = biological target: T4, Serine/threonine-protein kinase Sgk3 (Homo sapiens) (UniProt Q96BR1); test: Selectivity interaction (SelectScreen profiling (Invitrogen)) EUB0000607a SGK3; conditions: at 2 µM
T4 sequence (whole entry): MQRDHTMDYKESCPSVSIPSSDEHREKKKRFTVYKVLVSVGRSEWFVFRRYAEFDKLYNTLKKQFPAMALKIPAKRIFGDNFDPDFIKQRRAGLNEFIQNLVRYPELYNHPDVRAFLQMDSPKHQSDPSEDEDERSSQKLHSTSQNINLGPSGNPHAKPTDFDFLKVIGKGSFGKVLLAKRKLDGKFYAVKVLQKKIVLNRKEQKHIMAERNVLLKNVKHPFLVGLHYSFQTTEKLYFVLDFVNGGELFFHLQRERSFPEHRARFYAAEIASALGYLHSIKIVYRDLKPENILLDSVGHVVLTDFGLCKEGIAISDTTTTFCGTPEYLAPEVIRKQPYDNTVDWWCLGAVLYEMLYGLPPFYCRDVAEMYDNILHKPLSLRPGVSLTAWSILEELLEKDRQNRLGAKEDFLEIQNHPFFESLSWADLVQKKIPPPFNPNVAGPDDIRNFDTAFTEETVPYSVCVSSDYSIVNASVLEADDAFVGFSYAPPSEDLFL

[10] = biological target: T5, Uncharacterized serine/threonine-protein kinase SBK3 (Homo sapiens) (UniProt P0C264); test: Selectivity interaction (KinomeScan (DiscoverX)) EUB0000607a SBK3; conditions: at 10 µM
T5 sequence (whole entry): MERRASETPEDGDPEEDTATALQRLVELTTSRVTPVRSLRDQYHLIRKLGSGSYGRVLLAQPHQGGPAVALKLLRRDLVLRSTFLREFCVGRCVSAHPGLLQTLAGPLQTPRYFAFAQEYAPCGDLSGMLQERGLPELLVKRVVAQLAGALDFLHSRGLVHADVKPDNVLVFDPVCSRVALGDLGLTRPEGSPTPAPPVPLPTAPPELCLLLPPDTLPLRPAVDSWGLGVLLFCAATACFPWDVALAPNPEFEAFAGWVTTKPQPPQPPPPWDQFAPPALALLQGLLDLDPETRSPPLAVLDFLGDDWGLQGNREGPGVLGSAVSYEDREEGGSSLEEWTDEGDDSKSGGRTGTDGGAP

[11] = biological target: Cyclin-dependent kinase 5/CDK5 activator 1 (Homo sapiens) (UniProt Q00535+Q15078); test: Selectivity interaction (SelectScreen profiling (Invitrogen)) EUB0000607a CDK5; assay type: protein-complex assay; conditions: at 2 µM
Sequence of Cyclin-dependent kinase 5/CDK5 activator 1 (Homo sapiens) (Q00535 whole entry): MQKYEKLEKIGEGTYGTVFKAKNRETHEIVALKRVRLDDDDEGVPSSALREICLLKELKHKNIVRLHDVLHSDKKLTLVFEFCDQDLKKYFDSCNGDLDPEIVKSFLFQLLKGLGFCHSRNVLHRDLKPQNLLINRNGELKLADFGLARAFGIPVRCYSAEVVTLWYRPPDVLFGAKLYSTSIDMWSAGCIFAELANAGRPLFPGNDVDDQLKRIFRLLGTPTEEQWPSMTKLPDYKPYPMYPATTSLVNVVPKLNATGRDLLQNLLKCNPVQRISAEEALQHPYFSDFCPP
Sequence of Cyclin-dependent kinase 5/CDK5 activator 1 (Homo sapiens) (Q15078 99-307 partner limits assumed): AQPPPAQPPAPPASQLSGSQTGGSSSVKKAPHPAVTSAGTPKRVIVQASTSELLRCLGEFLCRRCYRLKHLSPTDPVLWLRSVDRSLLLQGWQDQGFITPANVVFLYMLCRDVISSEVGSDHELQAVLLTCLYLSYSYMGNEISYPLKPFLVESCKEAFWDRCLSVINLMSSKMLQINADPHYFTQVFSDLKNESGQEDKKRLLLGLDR

Sequence of Protein kinase C theta type (Q04759 whole entry, looked up): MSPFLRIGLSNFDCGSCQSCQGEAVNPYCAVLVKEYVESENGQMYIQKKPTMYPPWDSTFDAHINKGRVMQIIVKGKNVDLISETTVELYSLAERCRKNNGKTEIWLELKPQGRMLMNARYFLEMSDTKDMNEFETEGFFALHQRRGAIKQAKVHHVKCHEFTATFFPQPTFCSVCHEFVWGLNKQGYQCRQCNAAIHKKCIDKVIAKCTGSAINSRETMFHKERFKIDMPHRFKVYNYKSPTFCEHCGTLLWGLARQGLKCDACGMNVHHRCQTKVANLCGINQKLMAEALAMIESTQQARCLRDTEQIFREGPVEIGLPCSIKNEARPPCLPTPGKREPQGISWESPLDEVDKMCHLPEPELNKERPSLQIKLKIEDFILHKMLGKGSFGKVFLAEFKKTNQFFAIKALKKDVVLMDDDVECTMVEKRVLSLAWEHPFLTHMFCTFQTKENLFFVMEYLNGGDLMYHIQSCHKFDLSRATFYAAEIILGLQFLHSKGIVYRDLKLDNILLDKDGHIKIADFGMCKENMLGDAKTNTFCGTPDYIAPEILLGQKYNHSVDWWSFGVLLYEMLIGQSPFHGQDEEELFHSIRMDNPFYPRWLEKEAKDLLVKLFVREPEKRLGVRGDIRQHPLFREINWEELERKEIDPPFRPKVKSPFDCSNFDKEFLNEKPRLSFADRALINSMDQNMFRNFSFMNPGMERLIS
Sequence of Mitogen-activated protein kinase 11 (Homo sapiens) (Q15759 whole entry): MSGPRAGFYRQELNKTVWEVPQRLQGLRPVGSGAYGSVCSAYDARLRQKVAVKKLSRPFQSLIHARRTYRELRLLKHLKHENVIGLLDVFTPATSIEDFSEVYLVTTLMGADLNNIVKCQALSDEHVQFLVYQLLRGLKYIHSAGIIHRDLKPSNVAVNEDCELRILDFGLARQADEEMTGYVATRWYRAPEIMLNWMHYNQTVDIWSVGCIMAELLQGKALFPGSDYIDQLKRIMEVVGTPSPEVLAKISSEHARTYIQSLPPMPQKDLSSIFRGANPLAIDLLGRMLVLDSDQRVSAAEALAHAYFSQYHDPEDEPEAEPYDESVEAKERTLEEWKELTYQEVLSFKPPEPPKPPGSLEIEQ
Sequence of Tyrosine-protein kinase JAK1 (P23458 whole entry): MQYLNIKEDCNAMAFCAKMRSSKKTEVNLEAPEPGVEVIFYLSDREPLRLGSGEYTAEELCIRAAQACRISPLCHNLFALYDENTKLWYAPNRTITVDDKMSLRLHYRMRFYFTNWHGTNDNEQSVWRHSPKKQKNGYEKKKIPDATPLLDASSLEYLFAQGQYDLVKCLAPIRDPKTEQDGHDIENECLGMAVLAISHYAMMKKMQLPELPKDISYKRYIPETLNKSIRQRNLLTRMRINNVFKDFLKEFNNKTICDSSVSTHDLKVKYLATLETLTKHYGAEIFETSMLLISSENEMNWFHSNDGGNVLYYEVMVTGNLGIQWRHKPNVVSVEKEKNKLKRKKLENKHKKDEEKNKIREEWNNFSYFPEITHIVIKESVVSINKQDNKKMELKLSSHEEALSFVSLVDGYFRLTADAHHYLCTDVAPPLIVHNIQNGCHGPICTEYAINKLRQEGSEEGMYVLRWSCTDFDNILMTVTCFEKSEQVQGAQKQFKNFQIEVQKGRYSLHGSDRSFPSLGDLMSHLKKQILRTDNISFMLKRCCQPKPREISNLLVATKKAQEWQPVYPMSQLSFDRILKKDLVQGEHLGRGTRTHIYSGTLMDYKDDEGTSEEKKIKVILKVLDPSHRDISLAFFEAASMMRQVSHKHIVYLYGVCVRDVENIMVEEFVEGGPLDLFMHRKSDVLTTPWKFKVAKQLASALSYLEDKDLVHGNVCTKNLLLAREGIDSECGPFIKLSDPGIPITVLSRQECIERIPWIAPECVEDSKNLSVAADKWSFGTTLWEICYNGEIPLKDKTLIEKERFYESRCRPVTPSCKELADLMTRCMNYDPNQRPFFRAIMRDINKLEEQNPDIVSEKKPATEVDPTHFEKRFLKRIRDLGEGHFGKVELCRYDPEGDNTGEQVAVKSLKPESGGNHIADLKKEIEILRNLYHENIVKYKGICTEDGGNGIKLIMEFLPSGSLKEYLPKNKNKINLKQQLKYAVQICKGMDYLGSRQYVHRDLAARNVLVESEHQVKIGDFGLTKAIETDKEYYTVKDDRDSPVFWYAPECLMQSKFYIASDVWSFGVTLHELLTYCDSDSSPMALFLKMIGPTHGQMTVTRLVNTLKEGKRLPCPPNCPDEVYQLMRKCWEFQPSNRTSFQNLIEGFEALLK
Sequence of Cyclin-dependent kinase 5 (Q00535 whole entry, looked up): as the sequence (Q00535 whole entry) above
Sequence of Ribosomal protein S6 kinase alpha-6 (Q9UK32 whole entry): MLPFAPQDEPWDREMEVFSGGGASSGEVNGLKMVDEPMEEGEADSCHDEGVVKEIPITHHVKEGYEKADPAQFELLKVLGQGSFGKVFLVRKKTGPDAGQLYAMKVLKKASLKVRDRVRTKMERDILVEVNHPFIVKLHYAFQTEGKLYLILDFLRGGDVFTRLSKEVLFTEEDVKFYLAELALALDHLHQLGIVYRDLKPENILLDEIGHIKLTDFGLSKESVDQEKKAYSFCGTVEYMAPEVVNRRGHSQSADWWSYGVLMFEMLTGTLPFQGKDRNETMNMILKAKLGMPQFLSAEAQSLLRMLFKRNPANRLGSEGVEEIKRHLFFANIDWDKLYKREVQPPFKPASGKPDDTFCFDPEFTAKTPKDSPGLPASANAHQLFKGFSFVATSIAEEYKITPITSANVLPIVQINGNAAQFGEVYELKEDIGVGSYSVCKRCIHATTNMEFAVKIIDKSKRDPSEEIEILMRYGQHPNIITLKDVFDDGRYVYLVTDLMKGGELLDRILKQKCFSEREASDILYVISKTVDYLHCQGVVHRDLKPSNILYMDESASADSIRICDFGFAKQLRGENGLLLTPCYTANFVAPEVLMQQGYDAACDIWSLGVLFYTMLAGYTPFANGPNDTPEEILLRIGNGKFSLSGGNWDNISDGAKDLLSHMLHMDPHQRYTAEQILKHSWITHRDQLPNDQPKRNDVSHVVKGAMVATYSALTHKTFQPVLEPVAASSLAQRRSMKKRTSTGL

For `Cc1cnc(Nc2ccc(F)cc2Cl)nc1-c1c[nH]c(C(=O)N[C@H](CO)c2cccc(Cl)c2)c1`, the % of inhibition [1] was 25%.

`Cn1cc(-n2cnc3c(NCc4nc5cc(Cl)c(Cl)cc5[nH]4)nc(N4CCOCC4)nc32)cn1` showed a % of inhibition [2] of -19.1%.

`CCN(CC)CCCCNc1ncc2cc(-c3cc(OC)cc(OC)c3)c(NC(=O)NC(C)(C)C)nc2n1` was tested, and the % of control [3] was 100%.

Work on `Cc1ccc(-c2ccc3c(ccc4sc5c(c43)NC[C@@H](C)NC5=O)n2)cn1` yielded a % of inhibition [4] of -15%.

For `C=CC(=O)Nc1cc(-n2c(=O)ccc3cnc4ccc(-c5ccc(NS(C)(=O)=O)cc5)cc4c32)ccc1C`, the GIC50 [5] was 4.92 µM.

`CN(C)CCOc1ccc(-c2nc(-c3ccncc3)c(-c3ccc4c(c3)CC/C4=N\O)[nH]2)cc1` showed a % of control [6] of 100%.

For `N#Cc1cccc(-c2c[nH]c3ncnc(N4CCOCC4)c23)c1`, the % of inhibition [7] was 0% and the % of control [8] was 77%.

In the case of `CNC(=O)Nc1ccc(-c2nc(N3CC4CCC(C3)O4)c3cnn(C4CCC5(CC4)OCCO5)c3n2)cc1`, the % of inhibition [9] is reported as 3%, the % of control [10] is reported as 96% and the % of inhibition [11] is reported as 1%.
